In patent publication US20200323225A1, “LIPASE INHIBITORS TO PREVENT RANCIDITY IN EXPRESSED HUMAN MILK DURING STORAGE” (STC.UNM, priority 2017, published 2020):

Tests used:
LPL [1] = test: Lipase activity inhibition in raw milk samples after incubation with Orlistat; format: biochemical; details: raw milk samples (n=2); 10 μM Orlistat; incubated 1 h (FIG. 4)
Protocol: FIG. 4 is a graph sowing lipase activity inhibition after incubation with Orlistat. […] LPL activity in milk spiked with 6 pmol LPL and increasing levels of Orlistat (an LPL inhibitor) was monitored over the course of 20 min (FIG. 3). […] Raw milk samples were also treated with this level of Orlistat (10 μM) (FIG. 4).

LPL [2] = target: T1, LPL (Homo sapiens, UniProt P06858); test: LPL activity in milk spiked with 6 pmol LPL, with increasing levels of Orlistat; format: biochemical; details: 10 μM Orlistat, monitored over 20 min (FIG. 3)
T1 sequence (P06858 28-475): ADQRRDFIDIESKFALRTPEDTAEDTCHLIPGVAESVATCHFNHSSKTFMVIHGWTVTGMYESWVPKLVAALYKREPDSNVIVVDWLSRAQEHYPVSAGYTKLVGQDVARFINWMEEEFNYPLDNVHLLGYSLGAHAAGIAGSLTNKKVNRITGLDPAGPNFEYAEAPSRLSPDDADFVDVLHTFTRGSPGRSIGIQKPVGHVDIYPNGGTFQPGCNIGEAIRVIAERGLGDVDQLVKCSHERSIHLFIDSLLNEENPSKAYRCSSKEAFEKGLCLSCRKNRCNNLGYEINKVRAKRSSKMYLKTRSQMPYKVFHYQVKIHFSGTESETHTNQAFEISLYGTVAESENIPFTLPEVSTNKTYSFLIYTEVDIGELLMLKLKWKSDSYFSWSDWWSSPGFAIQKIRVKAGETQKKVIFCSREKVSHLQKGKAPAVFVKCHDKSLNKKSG
Protocol: FIG. 3 is a graph showing measurement of LPL activity in milk spiked with 6 pmol LPL in the absence or presence of LPL inhibitor, Orlistat.
LPL activity in milk spiked with 6 pmol LPL and increasing levels of Orlistat (an LPL inhibitor) was monitored over the course of 20 min (FIG. 3). […] Raw milk samples were also treated with this level of Orlistat (10 μM) (FIG. 4).

decrease in lipase activity (LPL) (LPL [1]): 22%
reduction in LPL activity (LPL [2]): most significant reduction in LPL
SMILES: CCCCCCCCCCC[C@@H](C[C@@H]1OC(=O)[C@H]1CCCCCC)OC(=O)[C@H](CC(C)C)NC=O [Orlistat]
